Read-outs that look alike come from different tables or passages of the source.
Legend:
[1] = test system: human liver carcinoma (HepG2) cells; test: MTT cytotoxicity, HepG2 cells; format: cell-based; conditions: HepG2 cells
Protocol: (§1) Human peripheral blood mononuclear (PBM), T lymphoblast CEM-CCRF (herein referred to as CEM cells), African green monkey kidney (Vero), or human liver carcinoma (HepG2) cells were tested via MTT assay using the CellTiter 96 Non-Radioactive Cell Proliferation (Promega) kit as previously described.[63]

[2] = test system: T lymphoblast CEM-CCRF (CEM) cells; test: MTT cytotoxicity, CEM cells; format: cell-based, human
Protocol: as §1

[3] = test system: African green monkey kidney (Vero) cells; test: MTT cytotoxicity, Vero cells; format: cell-based; conditions: Vero cells
Protocol: as §1

[4] = test system: human peripheral blood mononuclear (PBM) cells; test: MTT cytotoxicity, PBM cells; format: cell-based
Protocol: as §1

[5] = test system: HBV DNA replication in HepAD38 cells; test: HBV DNA replication inhibition assay in HepAD38 cells (7 days, PCR of supernatant DNA); format: cell-based, hepatitis B virus; conditions: HepAD38 cells; for HBV DNA inhibition (%) at 10 µM: first round of selected compounds
Protocol: HepAD38 cells were seeded at 50,000 cells/well in collagen-coated 96-well plates. […] The experiment lasted 7 days. On day 7, total DNA was purified from the supernatant using a commercially available kit (DNeasy 96 Blood & Tissue kit, Qiagen). The HBV DNA was amplified in a polymerase chain reaction assay using LightCycler 480 II (Roche), as previously described.[63] All samples were tested in duplicate.

[6] = trial 1, read-out: EC50, trial 1
[7] = trial 2, read-out: EC50, trial 2

SMILES	CC50 [1]	CC50 [2]	CC50 [3]	CC50 [4]	HBV DNA inhibition (%) at 10 µM [5]	% HBV DNA Inh. at 10 μM, trial 1 ([5]; trial 1)	% HBV DNA Inh. at 10 μM, trial 2 ([5]; trial 2)	EC50 [5, 6]	EC50 [5, 7]	percent cytotoxicity (cell growth inhibition) at 100 µM [4]	% cytotoxicity at 100 µM (MTT), CEM cells [2]	% cytotoxicity (MTT) at 100 µM ([3]; 100 µM)
NCc1ccc(-c2ccccc2F)o1 [GT-19]	> 100 µM	> 100 µM	> 100 µM	> 100 µM	< 1%	–	–	–	–	–	–	–
c1ccc(Cn2cc(-c3cccnc3)c(-c3nc(-c4ccccc4)c(-c4ccccc4)[nH]3)n2)cc1 [GT-34]	16 µM	11 µM	14 µM	59 µM	–	< 1%	< 1%	> 10 µM	> 10 µM	–	–	–
NCc1cccc(Oc2ccccc2)c1 [GT-12]	> 100 µM	17 µM	> 100 µM	> 100 µM	< 1%	–	–	–	–	–	–	–
CCN(CC)CCCNc1cc(OC)c(Nc2ccccc2)c2cccnc12 [GT-49]	17 µM	9.4 µM	16 µM	27 µM	–	45%	45%	> 10 µM	> 10 µM	–	–	–
CC(CC(C#N)(c1ccccc1)c1ccccc1)N1CCCCC1 (centres unmarked) [GT-2]	26.4 µM	16.1 µM	> 100 µM	85.3 µM	< 1%	–	–	–	–	–	–	–
NCc1ccc(F)c(COC2CCCC2)c1 [GT-22]	> 100 µM	36.3 µM	88.6 µM	> 100 µM	< 1%	–	–	–	–	–	–	–
N#CC(c1ccccc1)C(C(Cc1ccccc1)=NO)c1ccccc1 (centres unmarked) [GT-11]	31.6 µM	13.3 µM	18.9 µM	63.9 µM	< 1%	–	–	–	–	–	–	–
Cc1nc(-c2ccccc2)c(Cc2ccccc2O)c(=O)[nH]1 [GT-7]	> 100 µM	> 100 µM	> 100 µM	> 100 µM	< 1%	–	–	–	–	–	–	–
COc1ccc(F)c(Cn2cnc(-c3ccccc3)c2-c2c[nH]cn2)c1F [GT-38]	24 µM	62 µM	48 µM	> 100 µM	–	45%	45%	> 10 µM	> 10 µM	24%	–	–
O=C(OCc1ccccc1)c1cccnc1 [GT-16]	> 100 µM	> 100 µM	> 100 µM	> 100 µM	1.7%	–	–	–	–	–	–	–
CC(N)c1ccc(-c2ccc(F)cc2)cc1 (centres unmarked) [GT-29]	12.3 µM	35.7 µM	21 µM	25 µM	< 1%	–	–	–	–	–	–	–
C=CC1CN2CCC1CC2C(O)c1ccnc2ccc(OC)cc12 (centres unmarked) [GT-1]	–	–	–	–	< 1%	–	–	–	–	–	–	–
O=C(Cc1ccc(O)cc1)NCc1nc(-c2cccc(F)c2)c(-c2ccccn2)[nH]1 [GT-42]	5.4 µM	1.4 µM	13 µM	3.5 µM	–	< 1%	< 1%	> 10 µM	> 10 µM	–	–	–
Cc1ccc(C(N)c2ccncc2)cc1 (centres unmarked) [GT-20]	> 100 µM	> 100 µM	> 100 µM	> 100 µM	< 1%	–	–	–	–	–	–	–
Cc1ccc(CC#N)c(-c2c(CC#N)ccc(C)c2C)c1C [GT-9]	55.3 µM	> 100 µM	> 100 µM	> 100 µM	34.6%	–	–	–	–	–	–	–
CCN1CCN(C(=O)c2ccc(-c3nc4ccccc4nc3-c3ccccc3)cc2)CC1 [GT-30]	34 µM	32 µM	81 µM	60 µM	–	< 1%	< 1%	> 10 µM	> 10 µM	–	–	–
NCc1cccc(Oc2ccccc2)c1 [GT-21]	> 100 µM	18.2 µM	49.6 µM	> 100 µM	< 1%	–	–	–	–	–	–	–
O=C(NCc1cccnc1)C1CCNCC1 [GT-23]	> 100 µM	> 100 µM	> 100 µM	> 100 µM	< 1%	–	–	–	–	–	–	–
COc1ccc(-c2cc(C(=O)Oc3cccc(-c4cnc5ccccc5n4)c3)c3ccccc3n2)cc1 [GT-31]	42 µM	> 100 µM	97 µM	86 µM	–	< 1%	< 1%	> 10 µM	> 10 µM	–	36%	–
O=C(NCCn1ccnc1)c1ccccn1 [GT-26]	> 100 µM	> 100 µM	> 100 µM	> 100 µM	< 1%	–	–	–	–	–	–	–

SMILES	CC50 [1]	CC50 [2]	CC50 [3]	CC50 [4]	HBV DNA inhibition (%) at 10 µM [5]	% HBV DNA Inh. at 10 μM, trial 1 ([5]; trial 1)	% HBV DNA Inh. at 10 μM, trial 2 ([5]; trial 2)	EC50 [5, 6]	EC50 [5, 7]	percent cytotoxicity (cell growth inhibition) at 100 µM [4]	% cytotoxicity at 100 µM (MTT), CEM cells [2]	% cytotoxicity (MTT) at 100 µM ([3]; 100 µM)
O=C(CC1C=Cc2ccccc2N1C(=O)c1ccccc1)c1ccccc1 (centres unmarked) [GT-8]	> 100 µM	> 100 µM	> 100 µM	> 100 µM	< 1%	–	–	–	–	–	–	–
O=C(NCCc1ccccc1)c1cccnc1 [GT-13]	> 100 µM	> 100 µM	> 100 µM	> 100 µM	< 1%	–	–	–	–	–	–	–
OC(Cn1cnc(-c2ccccc2)c1-c1cc2ccccc2[nH]1)c1cccnc1 (centres unmarked) [GT-41]	10 µM	12 µM	18 µM	27 µM	–	< 1%	< 1%	> 10 µM	> 10 µM	–	–	–
CC(O)(c1ccccc1)C(c1ccccc1)C1CCCCN1 (centres unmarked) [GT-4]	> 100 µM	> 100 µM	> 100 µM	> 100 µM	< 1%	–	–	–	–	–	–	–
CC(NC(=O)c1ccccc1)c1ccccn1 (centres unmarked) [GT-25]	> 100 µM	> 100 µM	> 100 µM	> 100 µM	< 1%	–	–	–	–	–	–	–
NCc1ccc(N2CCC(CO)CC2)cc1 [GT-17]	> 100 µM	> 100 µM	> 100 µM	> 100 µM	< 1%	–	–	–	–	–	–	–
NCc1cccc(-c2ccccn2)c1 [GT-24]	> 100 µM	11.3 µM	> 100 µM	> 100 µM	< 1%	–	–	–	–	–	–	–
CC(NC(=O)c1cccnc1)c1ccccc1 (centres unmarked) [GT-18]	> 100 µM	> 100 µM	> 100 µM	> 100 µM	< 1%	–	–	–	–	–	–	–
Fc1ccccc1CNCc1ccccn1 [GT-14]	> 100 µM	> 100 µM	> 100 µM	> 100 µM	< 1%	–	–	–	–	–	–	–
Nc1ccn([C@@H]2CS[C@H](CO)O2)c(=O)n1 [3TC, reference compound]	–	–	–	–	97%	82%	–	–	–	–	–	–
Cc1cc(-c2ccccc2)nc(C#N)c1C#N [GT-27]	41.7 µM	4 µM	27.3 µM	14.7 µM	< 1%	–	–	–	–	–	–	–
Clc1ccccc1C=Cc1ccnc2ccccc12 [GT-3]	51.2 µM	15.4 µM	27 µM	34 µM	40.4%	–	–	–	–	–	–	–
COc1cc(OC)c2cc(-c3nc4ccccc4[nH]3)c(-c3ccc(C)cc3)nc2c1 [GT-35]	63 µM	> 100 µM	42 µM	> 100 µM	–	36%	36%	> 10 µM	> 10 µM	14%	49%	–
Cc1ccc(-c2nc(CNC(=O)C3CCOC3)[nH]c2-c2ccccn2)cc1 (centres unmarked) [GT-43]	29 µM	30 µM	19 µM	42 µM	–	4.7%	4.7%	> 10 µM	> 10 µM	–	–	–
CNc1cc(C#N)nc(-c2ccccc2)n1 [GT-28]	> 100 µM	63.8 µM	> 100 µM	24 µM	< 1%	–	–	–	–	–	–	–
Oc1c(C(Nc2ccccc2)c2ccccc2)ccc2cccnc12 (centres unmarked) [GT-48]	34 µM	3.4 µM	4.5 µM	20 µM	–	< 1%	< 1%	> 10 µM	> 10 µM	–	–	–
CC(=O)N1CCC(NCc2nc(-c3ccc(C)cc3)c(-c3ccccn3)[nH]2)CC1 [GT-44]	70 µM	63 µM	> 100 µM	64 µM	–	37%	37%	> 10 µM	> 10 µM	–	–	54%
CCC(CO)Nc1nc2ccc(Cl)cc2c2ccccc12 (centres unmarked) [GT-10]	12.9 µM	15.2 µM	14.4 µM	18.2 µM	< 1%	–	–	–	–	–	–	–
O=C(CCc1ccccc1)Nc1cccnc1 [GT-15]	> 100 µM	> 100 µM	> 100 µM	> 100 µM	< 1%	–	–	–	–	–	–	–
Cc1nc2ccccc2nc1-c1sc2ncccc2c1O [GT-37]	24 µM	> 100 µM	19 µM	> 100 µM	–	40%	40%	> 10 µM	> 10 µM	48%	< 1%	–
